Experimental data taken from PubChem BioAssay (NCI).
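Method: 48-hour compound exposure of cells in 96-well plates, five concentrations, linear interpolation of endpoints. At the TGI there is no net growth.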

Experiments:
Test in all cases: NCI tumour cell line growth inhibition, 48 h
HL-60(TB) leukemia = test system: HL-60(TB) leukemia
BT-549 breast = test system: BT-549 breast
SN12C renal = test system: SN12C renal
NCI-H522 lung = test system: NCI-H522 lung
UO-31 renal = test system: UO-31 renal
OVCAR-3 ovarian = test system: OVCAR-3 ovarian
SNB-75 CNS = test system: SNB-75 CNS
DU-145 prostate = test system: DU-145 prostate
HT29 colon = test system: HT29 colon
HS 578T breast = test system: HS 578T breast
SK-OV-3 ovarian = test system: SK-OV-3 ovarian
HOP-92 NSCLC = test system: HOP-92 NSCLC
NCI/ADR-RES ovarian = test system: NCI/ADR-RES ovarian
T-47D breast = test system: T-47D breast
CCRF-CEM leukemia = test system: CCRF-CEM leukemia
MCF7 breast = test system: MCF7 breast
SF-539 CNS = test system: SF-539 CNS
M14 melanoma = test system: M14 melanoma
SK-MEL-2 melanoma = test system: SK-MEL-2 melanoma
EKVX NSCLC = test system: EKVX NSCLC
OVCAR-4 ovarian = test system: OVCAR-4 ovarian
SF-295 CNS = test system: SF-295 CNS
786-0 renal = test system: 786-0 renal
MOLT-4 leukemia = test system: MOLT-4 leukemia
SK-MEL-5 melanoma = test system: SK-MEL-5 melanoma
SW-620 colon = test system: SW-620 colon
KM12 colon = test system: KM12 colon
TK-10 renal = test system: TK-10 renal
MDA-MB-435 = test system: MDA-MB-435
NCI-H23 lung = test system: NCI-H23 lung
NCI-H226 lung = test system: NCI-H226 lung
COLO 205 colon = test system: COLO 205 colon
UACC-62 melanoma = test system: UACC-62 melanoma
HOP-62 NSCLC = test system: HOP-62 NSCLC
MDA-MB-231 breast = test system: MDA-MB-231 breast
CAKI-1 renal = test system: CAKI-1 renal
MDA-N = test system: MDA-N
HCT-116 colon = test system: HCT-116 colon
HCT-15 colon = test system: HCT-15 colon
HCC-2998 colon = test system: HCC-2998 colon
UACC-257 melanoma = test system: UACC-257 melanoma
NCI-H460 lung = test system: NCI-H460 lung
A549 NSCLC = test system: A549 NSCLC
ACHN renal = test system: ACHN renal
OVCAR-8 ovarian = test system: OVCAR-8 ovarian
RXF 393 renal = test system: RXF 393 renal
SK-MEL-28 melanoma = test system: SK-MEL-28 melanoma
SF-268 CNS = test system: SF-268 CNS
RPMI-8226 leukemia = test system: RPMI-8226 leukemia
K-562 leukemia = test system: K-562 leukemia
LOX IMVI melanoma = test system: LOX IMVI melanoma
U251 CNS = test system: U251 CNS
PC-3 prostate = test system: PC-3 prostate
A498 renal = test system: A498 renal
SR leukemia = test system: SR leukemia
IGROV1 ovarian = test system: IGROV1 ovarian
MALME-3M melanoma = test system: MALME-3M melanoma
OVCAR-5 ovarian = test system: OVCAR-5 ovarian
SNB-19 CNS = test system: SNB-19 CNS

For `NCCC1([N+](=O)[O-])CCNCC1`, the TGI (HL-60(TB) leukemia) was > 100 µM, the TGI (BT-549 breast) was > 100 µM and the TGI (SN12C renal) was > 100 µM. For the same compound, the TGI (NCI-H522 lung) was > 100 µM, the TGI (UO-31 renal) was > 100 µM and the TGI (OVCAR-3 ovarian) was > 100 µM. The TGI (SNB-75 CNS) was > 100 µM, the TGI (DU-145 prostate) was > 100 µM and the TGI (HT29 colon) was > 100 µM. The TGI (HS 578T breast) was > 100 µM, the TGI (SK-OV-3 ovarian) was > 100 µM and the TGI (HOP-92 NSCLC) was > 100 µM. For the same compound, the TGI (NCI/ADR-RES ovarian) was > 100 µM, the TGI (T-47D breast) was > 100 µM and the TGI (CCRF-CEM leukemia) was > 100 µM. The TGI (MCF7 breast) was > 100 µM, the TGI (SF-539 CNS) was > 100 µM and the TGI (M14 melanoma) was > 100 µM. The TGI (SK-MEL-2 melanoma) was > 100 µM, the TGI (EKVX NSCLC) was > 100 µM and the TGI (OVCAR-4 ovarian) was > 100 µM. The TGI (SF-295 CNS) was > 100 µM, the TGI (786-0 renal) was > 100 µM and the TGI (MOLT-4 leukemia) was > 100 µM. The TGI (SK-MEL-5 melanoma) was > 100 µM, the TGI (SW-620 colon) was > 100 µM and the TGI (KM12 colon) was > 100 µM. For the same compound, the TGI (TK-10 renal) was > 100 µM, the TGI (MDA-MB-435) was > 100 µM and the TGI (NCI-H23 lung) was > 100 µM. For the same compound, the TGI (NCI-H226 lung) was > 100 µM, the TGI (COLO 205 colon) was > 100 µM and the TGI (UACC-62 melanoma) was > 100 µM. For the same compound, the TGI (HOP-62 NSCLC) was > 100 µM, the TGI (MDA-MB-231 breast) was > 100 µM and the TGI (CAKI-1 renal) was > 100 µM. For the same compound, the TGI (MDA-N) was > 100 µM, the TGI (HCT-116 colon) was > 100 µM and the TGI (HCT-15 colon) was > 100 µM. The TGI (HCC-2998 colon) was > 100 µM, the TGI (UACC-257 melanoma) was > 100 µM and the TGI (NCI-H460 lung) was > 100 µM. The TGI (A549 NSCLC) was > 100 µM, the TGI (ACHN renal) was > 100 µM and the TGI (OVCAR-8 ovarian) was > 100 µM. The TGI (RXF 393 renal) was > 100 µM, the TGI (SK-MEL-28 melanoma) was > 100 µM and the TGI (SF-268 CNS) was > 100 µM. For the same compound, the TGI (RPMI-8226 leukemia) was > 100 µM, the TGI (K-562 leukemia) was > 100 µM and the TGI (LOX IMVI melanoma) was > 100 µM. The TGI (U251 CNS) was > 100 µM, the TGI (PC-3 prostate) was > 100 µM and the TGI (A498 renal) was > 100 µM. The TGI (SR leukemia) was > 100 µM, the TGI (IGROV1 ovarian) was > 100 µM and the TGI (MALME-3M melanoma) was > 100 µM. For the same compound, the TGI (OVCAR-5 ovarian) was > 100 µM and the TGI (SNB-19 CNS) was > 100 µM.

In the case of `COc1ccc(N2C(=O)C3c4[nH]c5ccc(OCc6ccccc6)cc5c4C4CCC(C(C)C)CC4C3C2=O)cc1` (stereo not drawn), the TGI (HL-60(TB) leukemia) is reported as 23.9 µM, the TGI (BT-549 breast) is reported as > 60.4 µM and the TGI (SN12C renal) is reported as > 100 µM. For the same compound, the TGI (NCI-H522 lung) was 73.4 µM, the TGI (UO-31 renal) was > 100 µM and the TGI (OVCAR-3 ovarian) was > 100 µM. For the same compound, the TGI (SNB-75 CNS) was 10.4 µM, the TGI (DU-145 prostate) was > 100 µM and the TGI (HT29 colon) was > 100 µM. For the same compound, the TGI (HS 578T breast) was > 49.8 µM, the TGI (SK-OV-3 ovarian) was 43 µM and the TGI (HOP-92 NSCLC) was 93.2 µM. For the same compound, the TGI (NCI/ADR-RES ovarian) was > 100 µM, the TGI (T-47D breast) was > 100 µM and the TGI (CCRF-CEM leukemia) was 31.3 µM. For the same compound, the TGI (MCF7 breast) was > 100 µM, the TGI (SF-539 CNS) was 23.5 µM and the TGI (M14 melanoma) was > 100 µM. The TGI (SK-MEL-2 melanoma) was 40.3 µM, the TGI (EKVX NSCLC) was > 100 µM and the TGI (OVCAR-4 ovarian) was > 100 µM. For the same compound, the TGI (SF-295 CNS) was 29.3 µM, the TGI (786-0 renal) was > 47.6 µM and the TGI (MOLT-4 leukemia) was > 71.7 µM. The TGI (SK-MEL-5 melanoma) was > 100 µM, the TGI (SW-620 colon) was > 100 µM and the TGI (KM12 colon) was > 100 µM. For the same compound, the TGI (TK-10 renal) was > 80.4 µM, the TGI (MDA-MB-435) was > 100 µM and the TGI (NCI-H23 lung) was > 45.3 µM. For the same compound, the TGI (NCI-H226 lung) was 42.9 µM, the TGI (COLO 205 colon) was > 100 µM and the TGI (UACC-62 melanoma) was > 51.7 µM. The TGI (HOP-62 NSCLC) was 36.4 µM, the TGI (MDA-MB-231 breast) was 37.9 µM and the TGI (CAKI-1 renal) was > 59.6 µM. For the same compound, the TGI (MDA-N) was > 100 µM, the TGI (HCT-116 colon) was > 100 µM and the TGI (HCT-15 colon) was > 100 µM. For the same compound, the TGI (HCC-2998 colon) was > 100 µM, the TGI (UACC-257 melanoma) was > 100 µM and the TGI (NCI-H460 lung) was > 45.8 µM. For the same compound, the TGI (A549 NSCLC) was > 100 µM, the TGI (ACHN renal) was > 30.4 µM and the TGI (OVCAR-8 ovarian) was > 100 µM. The TGI (RXF 393 renal) was 32.9 µM, the TGI (SK-MEL-28 melanoma) was > 100 µM and the TGI (SF-268 CNS) was > 100 µM. For the same compound, the TGI (RPMI-8226 leukemia) was > 100 µM, the TGI (K-562 leukemia) was > 68.3 µM and the TGI (LOX IMVI melanoma) was > 100 µM. For the same compound, the TGI (U251 CNS) was > 73.1 µM, the TGI (PC-3 prostate) was > 100 µM and the TGI (A498 renal) was 25.4 µM. For the same compound, the TGI (SR leukemia) was 22.9 µM, the TGI (IGROV1 ovarian) was > 80.6 µM and the TGI (MALME-3M melanoma) was > 100 µM. For the same compound, the TGI (OVCAR-5 ovarian) was > 100 µM and the TGI (SNB-19 CNS) was 34.9 µM.
